Measured values taken from US10131639B2, “Formulations of 2-(tert-butylamino)-4-((1R,3R,4R)-3-hydroxy-4methylcyclohexylamino)-pyrimidine-5-carboxamide” (Signal Pharmaceuticals, LLC, priority 2014, dated 2018).

How the values were obtained:
[1] = Solubility in water and SGF (24 hours, ambient temperature, HPLC/UV); format: physicochemical; conditions: for pH of the solubility sample in SGF / pH of the solubility sample in water: measured after 24 hours shaking; for Solubility in SGF (equiv. to free base): simulated gastric fluid without pepsin; for Solubility in SGF (equiv. to free base) / Solubility in water (equiv. to free base): ambient temperature, 24 hours
Method: Solubility in Water and SGF: A portion of the sample was weighed into a 2 mL clear HPLC vial. […] The sample was removed from the shaker and pH measurement was performed using a calibrated pH meter. Then a portion of the sample was filtered using […] Nylon-membraned centrifuge tube filter at 14000 RPM for 5 min. The filtrate was analyzed using HPLC/UV with appropriate dilution. The filtered solid residues were analyzed using XRPD.
For solubility in SGF, the samples were prepared and assayed in the same procedures as mentioned above.

[2] = Solid state chemical stability under stress conditions (HPLC with UV detection); conditions: for Chemical stability (open vial, 2 weeks) / Chemical stability (open vial, 2 weeks): degradation: HPLC/UV; for % Remaining at 80° C. / % Remaining at 80° C./75% RH: solid state, open vial, 2 weeks, HPLC with UV detection
Method: Six vials were prepared for each salt. Two samples were stored in the refrigerator. The other four samples in open vials were stored under 4 stress conditions, respectively. […] One set of samples stored in the refrigerator were used to prepare the stock and standard solutions.

[3] = Hygroscopicity by dynamic vapor sorption (DVS); format: physicochemical; conditions: for Hygroscopicity (80% RH, 25° C., cycle 1 sorption): DVS water uptake, L-tartrate: hydrate, difference between 20% RH and 80% RH
Excerpt: DVS: A portion of the sample was loaded into a quartz sample holder and tested using DVS-Advantage system in two continuous adsorption/desorption cycles. The settings are described as follows:
Adsorption/desorption cycle 1: 50 to 95 to 0% RH;
Adsorption/desorption cycle 2: 0 to 95 to 0% RH;

[4] = Solid state physical stability under stress conditions (XRPD); format: physicochemical; conditions: XRPD vs initial material
Method: A portion of the sample was loaded to a 4 mL clear glass vial. Four samples were prepared for each salt. The vials (open) were stored under 4 different stress conditions, respectively.

[5] = Hygroscopicity by dynamic vapor sorption (DVS); format: physicochemical; conditions: 25° C., after pre-heating at 50° C. for 3 hours
[6] = 80° C./75% RH, listed as H2SO4 salt

Compound | pH of the solubility sample in SGF [1] | pH of the solubility sample in water [1] | Solubility in SGF (equiv. to free base) [1] [µg/mL] | Solubility in water (equiv. to free base) [1] [µg/mL] | Chemical stability (open vial, 2 weeks) ([2]; 80° C./75% RH) | Chemical stability (open vial, 2 weeks) ([2]; 80° C.) | % Remaining at 80° C. ([2]; 80° C.) [%] | % Remaining at 80° C./75% RH ([2]; 80° C./75% RH) [%] | Hygroscopicity (80% RH, 25° C., cycle 1 sorption) [3] [%] | hygroscopicity (sorption/desorption, in words) ([3]; DVS, 25° C.) | Physical stability (open vial, 2 weeks) ([4]; 80° C./75% RH) | Physical stability (open vial, 2 weeks) ([4]; 80° C.) | other results
CC1CCC(Nc2nc(NC(C)(C)C)ncc2C(N)=O)CC1O.Cl (stereo not shown) [HCl] | (pH 1.19) | (pH 3.87) | 6058 | 10761 | no change | no change | 101.2 | 100.4 | 5.21 | hygroscopic | form change | no change | water uptake at 40% RH, Cycle 2 sorption isotherm ([3]; DVS, 25° C.): 4.89%; Physical stability (open vial, 2 weeks) ([4]; 80° C./75% RH, listed as HCl salt): not stable; Physical stability (open vial, 2 weeks) ([4]; 80° C., listed as HCl salt): physically stable
C[C@@H]1CC[C@@H](Nc2nc(NC(C)(C)C)ncc2C(N)=O)C[C@H]1O.O=C(O)C[C@H](O)C(=O)O [L-malate] | (pH 1.54) | (pH 4.07) | 8922 | 4496 | not chemically stable | not chemically stable | 87.7 | 92.9 | 5.60 | hygroscopic | form change | form change | Chemical stability (open vial, 2 weeks): degradation ([2]; 80° C./75% RH): ~7% degradation; Chemical stability (open vial, 2 weeks): degradation ([2]; 80° C.): ~12% degradation; Physical stability (open vial, 2 weeks) ([4]; 80° C./75% RH, listed as L-malate salt): not physically stable; Physical stability (open vial, 2 weeks) ([4]; 80° C., listed as L-malate salt): not physically stable
CC(O)C(=O)O.CC1CCC(Nc2nc(NC(C)(C)C)ncc2C(N)=O)CC1O [L-lactate] |  |  |  |  | no change | no change | 100.4 | 100.5 | 2.65 | moderately hygroscopic | form change | form change | Physical stability (open vial, 2 weeks) ([4]; 80° C./75% RH, listed as L-lactate salt form 2): not physically stable; Physical stability (open vial, 2 weeks) ([4]; 80° C., listed as L-lactate salt form 2): not physically stable
O=C(O)[C@H](O)[C@@H](O)C(=O)O [L-tartrate] |  |  |  |  | no change | no change | 98.7 | 98.3 | 0.81 |  | no change | no change | Cycle 1 sorption at 20% RH [5]: 4.32%; hygroscopicity (sorption/desorption, in words) ([3]; DVS, 25° C., listed as L-tartrate salt): slightly hygroscopic; hygroscopicity (sorption/desorption, in words) ([3]; DVS, 25° C., listed as L-tartrate salt (hydrate)): not hygroscopic; Physical stability (open vial, 2 weeks) ([4]; 80° C./75% RH, listed as L-tartrate salt): physically stable; Physical stability (open vial, 2 weeks) ([4]; 80° C., listed as L-tartrate salt): physically stable
C[C@@H]1CC[C@@H](Nc2nc(NC(C)(C)C)ncc2C(N)=O)C[C@H]1O.O=P(O)(O)O [Compound H3PO4] |  |  |  |  | no change | no change | 101.1 | 99.9 | 0.48 | not hygroscopic | no change | no change | Physical stability (open vial, 2 weeks) ([4]; 80° C./75% RH, listed as H3PO4 salt): physically stable; Physical stability (open vial, 2 weeks) ([4]; 80° C., listed as H3PO4 salt): physically stable
C[C@@H]1CC[C@@H](Nc2nc(NC(C)(C)C)ncc2C(N)=O)C[C@H]1O.O=S(=O)(O)O [Compound H2SO4] | (pH 1.03) | (pH 1.69) | 3187 | 2647 | no change | no change | 100.0 | 100.1 | 6.13 | hygroscopic | form change | no change | Chemical stability (open vial, 2 weeks) [2, 6]: stable; Chemical stability (open vial, 2 weeks) ([2]; 80° C., listed as H2SO4 salt): stable; Physical stability (open vial, 2 weeks) [4, 6]: not stable; Physical stability (open vial, 2 weeks) ([4]; 80° C., listed as H2SO4 salt): physically stable
